# Data published in US12351565B2, “Aromatic compound and preparation method therefor and use thereof” (SHANGHAI JIANHE PHARMACEUTICAL & TECHNOLOGY CO. LTD., priority 2018, dated 2025).
# Counter-ions that a name gives are not always drawn. Like-named read-outs stand apart in the source and are kept apart here.
# Experiments:
# C57 mice [1] = assay: Forced swimming experiment, oral administration to mice; type: in vivo; conditions: inhibition of immobility time, C57 mice; for 1 h inhibition rate: forced swimming 1 h after single oral (intragastric) 20 mg/kg; for 24 h inhibition rate: forced swimming 24 h after single oral (intragastric) 20 mg/kg
# Experimental: 1 h and 24 h after a single oral administration of 20 mg/kg, forced swimming experiments were then carried out to investigate the effects of different compounds on depression-like behavior in C57 mice.
# (§1) Experimental animals were 6-week aged C57 mice, male, C57 mice were purchased from Shanghai SLAC Laboratory Animal Co., Ltd., with a body weight of 20.45±0.19 g. Before the experiment, they arrived at the Animal Feeding Center of Shanghai Institute of Materia Medica, Chinese Academy of Sciences (Animal Production License: SCXK9[Shanghai]2004-0002, usage license: SYXK[Shanghai]2003-0029), and adapted for 3 days or more in animal facilities. They were bred at 6 animals/cage. The breeding environment was room temperature 23±0.2° C., with 12/12 hours alternation of day and night. Before the behavioral test, the animals should be moved to the behavioral test operation room 2 hours in advance to adapt to the environment and reduce their tension.
# Preparation of the test product: each test compound was accurately weighed and dissolved in 0.9% NaCl solution, mixed thoroughly, and prepared into 1 mg/ml and 2 mg/ml solutions respectively, and set aside.
# (§2) 24 hours before the administration, the mice were placed in a cylindrical tank to adapt to the aquatic environment for 10 min. On the day of the behavioral test, the animals were respectively administered intragastrically once at 1 h and 24 h before the behavioral test. The mice were placed individually into a cylindrical glass tank with a height of 30 cm and a diameter of 20 cm. The water depth in the tank was 15 cm, so that the animals could not escape from the glass tank and their feet and tails could not touch the bottom of the tank, the water temperature was 23° C.-25° C. A 6 minute video was taken after the mouse entered into water. Since most animals were very active in the first two minutes, the immobility time in the following 4 minute were calculated (criterion of immobility: the mouse stops struggling in the water, stays still and has small limbs movement to maintain balance or to keep a floating state).
# (§3) The antidepressant effect of a compound was evaluated by the ability of the compound to reduce the immobility time of the animal in the forced swimming test as compared with the blank group. Inhibition rate1 h(%)=immobility time(blank, 1 h)−immobility time(administration, 1 h)/immobility time(blank, 1 h)×100% Inhibition rate24h(%)=immobility time(blank, 24 h)−immobility time(administration, 24 h)/immobility time(blank, 24 h)×100%
# hERG potassium channel = molecular target: T1, hERG potassium channel (Homo sapiens, UniProt Q12809); assay: hERG potassium channel inhibition experiment (automatic patch clamp, CHO-hERG cells); type: cell-based; conditions: Qpatch, highest tested concentration 40 μM, read-out: IC50, blocking effect on the hERG potassium current
# T1 construct: expressed in transfected cells
# Experimental: Fully automatic patch clamps were used to test the blocking effect of the compounds of the present invention on the hERG potassium current on a stable cell line transfected with hERG potassium channels.
# CHO-hERG cells were cultured in 175 cm^2 culture flask. When the cell grew to 60-80% confluence, the culture medium was removed. The cells were washed with 7 ml PBS (Phosphate Buffered Saline) once, and then 3 ml Detachin was added to digest.
# After the digestion was completed, 7 ml culture medium was added to neutralize. The mixture was centrifuged, and after the supernatant was removed, 5 ml culture medium was added to resuspend to ensure the cell density was 2×10^6-5×10^6/ml.
# Single-cell high-impedance sealing and whole-cell mode formation were all automatically completed by using the Qpatch instrument. After the recording mode was obtained, the cell was clamped at −80 millivolts. Before +40 millivolt depolarization stimulation for 5 seconds was given, −50 millivolt pre-voltage for 50 millisecond was first given, then repolarized to −50 millivolt for 5 seconds, and then returned to −80 millivolt. This voltage stimulus was applied every 15 seconds. After recording for 2 min, extracellular fluid was given, and recording was conducted for 5 min, and then the dosing process started. The compound concentration started from the lowest test concentration, and each test concentration was given for 2.5 min. […] At least 3 cells per concentration (n≥3) were tested.
# 20 mM compound mother liquor was diluted with extracellular fluid. 5 μL of 20 mM compound mother liquor was taken and added into 2495 μL extracellular fluid, so that it was diluted 500 times to 40 μM, and was then serially diluted 3 times in an extracellular fluid containing 0.2% DMSO to obtain the final concentration to be tested.
# The highest tested concentration was 40 μM, and the concentrations were in order as follows: 40, 13.33, 4.44, 1.48, 0.49, 0.16 μM, totally 6 concentrations.
# Experimental data were analyzed by XLFit software.
# C57 mice [2] = assay: Forced swimming experiment, intraperitoneal administration to mice; type: in vivo; conditions: Mus musculus, ip
# Experimental: The forced-swimming test is currently the most widely used classic method to evaluate the antidepressant effects of compounds in rodents. […] The time in immobile state of experimental animal is observed and recorded, which can be used to evaluate the effect of antidepressant compounds.
# 1 h and 24 h after a single intraperitoneal administration of 10 mg/kg, forced swimming tests were respectively carried out to investigate the effects of different compounds on depression-like behaviors of C57 mice.
# as §1, with “male, and” for “male,”
# Preparation of the test product: each test compound was accurately weighed and dissolved in 0.9% NaCl solution, mixed thoroughly, and prepared as a 1 mg/ml solution, set aside.
# as §2, with “intraperitoneally” for “intragastrically”
# as §3, with “group. The shorter the immobility time of the animal to be tested, the higher the inhibition rate and the stronger the antidepressant activity.” for “group.”, “rate24 h(%)=immobility” for “rate24h(%)=immobility”
# [3] = In vivo pharmacokinetic experiment in rats; conditions: SD rats
# Experimental: Healthy male SD rats were randomly divided into groups with 3 rats in each group, and the test compounds were administrated intragastrically or by intravenous injection. See Table 8 below for specific arrangements:
# (§4) Each test compound was dissolved in physiological saline to prepare a certain concentration of solution for administration.
# (§5) One day before administration, the rats were fasted and allowed to drink freely for 12-14 h. The rats were fed 4 h after administration. 0.030 mL of blood was took from each animal each time through the orbit, and anticoagulated with EDTAK2 anticoagulation. The collection time points were as follows: in PO group, 5 min, 10 min, 15 min, 30 min, 1 h, 2 h, 4 h, 6 h, 8 h, 24 h after administration of test substance; in IV group, 2 min, 5 min, 15 min, 30 min, 1 h, 2 h, 4 h, 6 h, 8 h, 24 h after administration of test substance. After blood samples were collected, they were placed on ice and centrifuged to separate the plasma within 30 minutes (centrifugation conditions: 5000 rpm, 10 minutes, 4° C.). The sample were stored at −80° C. before analysis.
# [4] = Distribution in mouse brain tissue; type: in vivo, C57 mice
# Experimental: Healthy male C57 mice were randomly divided into groups with 3 mice in each group, and the test compound was administrated intragastrically. See Table 10 below for specific arrangements:
# as §4
# (§6) One day before administration, the mice were fasted and allowed to drink freely for 12-14 h. The mice were fed 4 h after administration.
# After the animals were bled, the brain tissue was collected. After washing, 50% ice methanol was added for homogenate at 1:4 (m/v). The collection time points was 10 min, 15 min, 30 min, 1 h, 2 h after administration of the test substance; 30.0 μL of tissue sample was taken (the sample was taken out from the refrigerator at −80° C., vortexed for 30 seconds after natural melting at room temperature) and added into a 1.5 mL centrifuge tube. 300.0 μL internal standard solution (30 ng/mL […] acetonitrile solution) was added, the mixture was vortex for 60 seconds and then centrifuged for 3 minutes (centrifugal force was 12000 rpm); 75 μL of the supernatant was taken and transferred to 96-well injection plate loaded with equal volume of water, shaken and mixed well, and subjected to LC-MS/MS analysis, wherein injection volume was 10 μL.
# [5] = In vivo pharmacokinetic experiment in mice; conditions: C57 mice
# Experimental: Healthy male C57 mice were randomly divided into groups with 3 mice in each group, and the test compounds were administrated intragastrically or by intravenous injection. See Table 6 below for specific arrangements:
# as §4, §6
# as §5, with “0.030” for “One day before administration, the rats were fasted and allowed to drink freely for 12-14 h. The rats were fed 4 h after administration. 0.030”, “EDTAK2.” for “EDTAK2 anticoagulation.”, “5” for “5 min, 10”
# [6] = 1 h, read-out: 1 h inhibition rate
# [7] = 24 h, read-out: 24 h inhibition rate
# [8] = male, rat, iv, 10 mg/kg i.v., plasma
# [9] = male, rat, po, 10 mg/kg p.o., plasma
# [10] = male, rat, po, 100 mg/kg p.o., plasma
# [11] = male, mouse, iv, 5 mg/kg i.v., plasma
# [12] = male, mouse, po, 20 mg/kg p.o., plasma
# T1 sequence (Q12809 whole entry): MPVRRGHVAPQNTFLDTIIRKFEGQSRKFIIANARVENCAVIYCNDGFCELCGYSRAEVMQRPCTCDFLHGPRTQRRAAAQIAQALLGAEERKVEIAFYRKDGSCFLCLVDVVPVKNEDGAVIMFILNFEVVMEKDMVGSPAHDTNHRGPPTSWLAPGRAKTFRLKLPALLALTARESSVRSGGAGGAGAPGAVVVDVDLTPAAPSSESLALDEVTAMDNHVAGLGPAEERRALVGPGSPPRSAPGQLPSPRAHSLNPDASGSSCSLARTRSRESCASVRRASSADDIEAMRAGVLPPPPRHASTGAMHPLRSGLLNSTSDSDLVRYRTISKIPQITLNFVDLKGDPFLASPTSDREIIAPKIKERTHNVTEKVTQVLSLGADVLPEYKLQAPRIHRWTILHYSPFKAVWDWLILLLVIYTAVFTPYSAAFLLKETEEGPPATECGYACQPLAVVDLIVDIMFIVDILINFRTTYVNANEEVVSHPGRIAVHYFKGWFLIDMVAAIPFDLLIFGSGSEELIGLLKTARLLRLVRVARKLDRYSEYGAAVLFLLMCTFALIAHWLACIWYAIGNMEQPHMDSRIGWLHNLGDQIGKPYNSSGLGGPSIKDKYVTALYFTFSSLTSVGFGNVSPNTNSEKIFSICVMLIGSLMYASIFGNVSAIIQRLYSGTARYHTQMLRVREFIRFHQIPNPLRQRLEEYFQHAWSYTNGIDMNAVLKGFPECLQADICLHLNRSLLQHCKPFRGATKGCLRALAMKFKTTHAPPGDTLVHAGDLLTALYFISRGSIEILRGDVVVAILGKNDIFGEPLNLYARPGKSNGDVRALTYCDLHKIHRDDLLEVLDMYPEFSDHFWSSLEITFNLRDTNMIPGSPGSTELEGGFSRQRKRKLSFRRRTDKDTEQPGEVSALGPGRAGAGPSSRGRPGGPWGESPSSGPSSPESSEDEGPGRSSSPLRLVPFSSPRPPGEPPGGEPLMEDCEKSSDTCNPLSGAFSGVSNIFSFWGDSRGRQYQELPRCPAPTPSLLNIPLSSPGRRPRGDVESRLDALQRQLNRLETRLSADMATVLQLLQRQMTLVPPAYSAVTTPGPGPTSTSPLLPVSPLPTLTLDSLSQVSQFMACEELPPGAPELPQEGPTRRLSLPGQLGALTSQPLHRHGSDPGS
smiles,measurement,setting,value
"Cl.NC1(c2cccc(F)c2F)CCCC(O)C1=O (stereo not shown) [Compound 44, 2-amino-2-(2,3-difluorophenyl)-6-hydroxycyclohexane-1-one hydrochloride]",1 h inhibition rate,C57 mice [1],27.3 ± 1.2%
same,24 h inhibition rate,C57 mice [1],22.3 ± 2.3%
same,IC50,hERG potassium channel,> 40 µM
same,inhibition in vivo at 10 mg/kg,C57 mice [2]; [6],36.5 ± 2.9%
same,inhibition in vivo at 10 mg/kg,C57 mice [2]; [7],53.5 ± 0.2%
"NC1(c2ccccc2C(F)(F)F)CCCC(O)C1=O (stereo not shown) [Compound 45, 2-amino-6-hydroxy-2-(2-(trifluoromethyl)phenyl)cyclohexane-1-one hydrochloride]",IC50,hERG potassium channel,> 40 µM
same,inhibition in vivo at 10 mg/kg,C57 mice [2]; [6],33 ± 4.1%
same,inhibition in vivo at 10 mg/kg,C57 mice [2]; [7],44.5 ± 2.2%
"Cl.N[C@@]1(c2ccc(C(F)(F)F)cc2)CCC[C@@H](O)C1=O [Compound 50, (2R,6R)-2-amino-6-hydroxy-2-(4-(trifluoromethyl)phenyl)cyclohexane-1-one hydrochloride]",1 h inhibition rate,C57 mice [1],34.5 ± 3.1%
same,24 h inhibition rate,C57 mice [1],35.6 ± 3.6%
same,AUC0-t,"[3]; 10 mg/kg i.v., plasma",10976 ngh/mL
same,AUC0-∞,"[3]; 10 mg/kg i.v., plasma",11306 ngh/mL
same,F,[3]; 10 mg/kg p.o.,82.5%
same,AUC0-t,"[3]; 10 mg/kg p.o., plasma",9060 ngh/mL
same,AUC0-∞,"[3]; 10 mg/kg p.o., plasma",9533 ngh/mL
same,F,[3]; 100 mg/kg p.o.,77.8%
same,AUC0-t,"[3]; 100 mg/kg p.o., plasma",85478 ngh/mL
same,AUC0-∞,"[3]; 100 mg/kg p.o., plasma",87916 ngh/mL
same,MRT,[3]; [8],4.56 h
same,half-life,[3]; [8],4.84 h
same,clearance,"[3]; male, rat, plasma, iv, 10 mg/kg i.v.",14.8 mL/min/kg
same,Vd,"[3]; male, rat, plasma, iv, 10 mg/kg i.v., read-out: Vss",4.03 L/kg
same,Cmax,[3]; [9],3110 ng/mL
same,MRT,[3]; [9],6.29 h
same,Tmax,[3]; [9],0.31 h
same,half-life,[3]; [9],5.73 h
same,Cmax,[3]; [10],17300 ng/mL
same,MRT,[3]; [10],5.47 h
same,Tmax,[3]; [10],0.67 h
same,half-life,[3]; [10],4.86 h
same,AUC0-∞,"[4]; C57 mouse brain tissue, 20 mg/kg p.o.",18509 ng·h/g
same,concentration at 10 min,"[4]; male, brain, po, C57 mouse, 20 mg/kg p.o. (intragastrically), 10 min",19400 ng/g
same,half-life,"[4]; male, po, C57 mouse brain tissue, 20 mg/kg p.o.",1.44 h
same,AUC0-t,"[5]; 5 mg/kg i.v., plasma",3022 ngh/mL
same,AUC0-∞,"[5]; 5 mg/kg i.v., plasma",3075 ngh/mL
same,F,[5]; 20 mg/kg p.o. vs 5 mg/kg i.v.,112%
same,AUC0-t,"[5]; 20 mg/kg p.o., plasma",13548 ngh/mL
same,AUC0-∞,"[5]; 20 mg/kg p.o., plasma",13624 ngh/mL
same,MRT,[5]; [11],1.29 h
same,half-life,[5]; [11],1.67 h
same,clearance,"[5]; male, mouse, plasma, iv, 5 mg/kg i.v.",27.2 mL/min/kg
same,Vd,"[5]; male, mouse, plasma, iv, 5 mg/kg i.v., read-out: Vss",2.1 L/kg
same,Cmax,[5]; [12],8100 ng/mL
same,MRT,[5]; [12],2.49 h
same,Tmax,[5]; [12],6.6 min
same,half-life,[5]; [12],4.16 h
"NC1(c2c(F)cc(F)cc2F)CCCC(O)C1=O (stereo not shown) [Compound 73, 2-amino-6-hydroxy-2-(2,4,6-trifluorophenyl)cyclohexane-1-one hydrochloride]",IC50,hERG potassium channel,> 40 µM
same,inhibition in vivo at 10 mg/kg,C57 mice [2]; [6],38.6 ± 6%
same,inhibition in vivo at 10 mg/kg,C57 mice [2]; [7],36.9 ± 3.9%
